Assay results from patent US12527788B2, “Defining RNA-small molecule affinity landscapes enables design of a small molecule inhibitor of an oncogenic non-coding RNA” (University of Florida Research Foundation, Incorporated, priority 2017, dated 2026).

Tests used:
[1] = tested on: 33 mature miRNAs with potential binding sites for 4; assay: Profiling of mature miRNAs with potential binding sites in DU145 cells; format: cell-based, human
From the text: We further probed the selectivity of 4 by studying its effect on levels of other mature miRNAs (FIG. 8C) and on pre-miR-17, -18a and -20a. We identified miRNAs with potential binding sites for 4, as determined by HiT-StARTS, using a database of RNA folds in the human miRNA transcriptome,^38 including the 5′G_U/3′CUA bulge common to the Dicer processing sites in miR-17, -18a and -20a (n=33). The potential binding sites for 4 can occur anywhere in the miRNA; that is, they were not confined to Drosha or Dicer processing sites. Other miRNAs that contain the 5′G_U/3′CUA motif have a much lower expression level than miR-17, miR-18a, and miR-20. Studying these RNAs could allow assessment of influence of expression level on compound potency and selectivity, an important consideration in RNA targeting that has largely gone unaddressed.
Collectively, it appears that it is easier to target and inhibit the biogenesis of highly expressed miRNAs than the ones that are of lower expression. Such effects have been well-documented in the protein-targeting community but until now have not been studied in RNA targeting endeavors.
Cell Culture: DU145 cells were cultured in growth medium (Roswell Park Memorial Institute medium (RPMI) supplemented with 10% fetal bovine serum (FBS)) at 37° C. and 5% CO2 […]

[2] = tested on: motif in the Dicer site of miR-92a; assay: Fluorescence-based binding affinity measurement; design: species or system human; settings: miR-92a Dicer site motif
Experimental: (§1) Mutation of the U bulge to an AU pair (RNAC) eliminates binding (Kd>100 μM).
(§2) Binding Affinity Measurements: An in solution, fluorescence-based assay was used to determine binding affinities by monitoring the change in fluorescence intensity of 1-FL (or 2-FL/3-FL/4-FL) as a function of RNA concentration as described previously.^18 Briefly, the RNA of interest was folded in 1× Folding Buffer (8 mM Na2HPO4, pH 7.0, 185 mM NaCl and 1 mM EDTA) by heating at 60° C. for 5 min followed by slowly cooling to room temperature on the bench top. Then, the FL-conjugated compound was added into the RNA solution to a final concentration of 100 nM. Serial dilutions were then completed using 1× Folding Buffer supplemented with 100 nM FL-conjugated compound. The solutions were incubated at room temperature for 30 min and then transferred to a well of a black 384-well plate. Fluorescence intensity was measured using a Bio-Tek FL×800 plate reader with an excitation wavelength of 485/20 nm and an emission wavelength of 528/20 nm. The change in fluorescence intensity as a function of the concentration of RNA was fit to equation 3:^9 I=I0+0.5 Δε{([FL]0+[RNA]0 +Kd)−(([FL]0+[RNA]0+Kd)^2−4[FL]0[RNA]0)^1/2} (3) where I is the observed fluorescence intensity; I0 is the fluorescence intensity in the absence of RNA; Δε is the difference between the fluorescence intensity in the absence of RNA and in the presence of infinite RNA concentration; [FL]0 is the concentration of compound; [RNA]0 is the concentration of the selected RNA; and Kd is the dissociation constant.

[3] = tested on: motif in the Dicer site of miR-19a; assay: Fluorescence-based binding affinity measurement; design: species or system human; settings: miR-19a Dicer site motif
Experimental: as §1, §2

[4] = tested on: motif in the Dicer site of miR-19b; assay: Fluorescence-based binding affinity measurement; design: species or system human; settings: miR-19b Dicer site motif
Experimental: as §1, §2

AT-rich DNA hairpin = assay: In solution fluorescence-based binding affinity measurement
From the text: It has been difficult to identify compounds that are heterocyclic in nature that selectively recognize RNA over DNA.^5 Thus, to further gain insight into the selectivity of our RNA motif-small molecule interactions, we compared the measured affinities for selected RNA motifs to the affinities of the ligands for an AT-rich DNA hairpin, a common target of small molecules similar to those shown in FIG. 1. […] This alteration reduces DNA affinity because key stacking and hydrogen bonding interactions are not possible. […] Thus, the interactions selected via 2DCS are RNA-selective.
as §2

pre-miR-17 = assay: Chem-CLIP in DU145 cell lysates; format: binding, human; settings: 10 μM, DU145 cell lysate
Experimental: (§3) Chem-CLIP in Cell Lysates: DU145 cells were cultured as described above in 100 mm dishes and lysed with 500 μL of Cell Lysis Buffer (10 mM Tris pH 7.4, 0.25% Igepal CA-630 and 150 mM NaCl) for 5 min at room temperature. The cell lysate was then centrifuged and the supernatant collected. Next, 10 μM of 4 was added to the lysate in 1×PBS and the sample was incubated for 2 h at room temperature. The reaction was then directly used for pull-down by incubating with 50 μL of streptavidin resin in 1×PBS for 30 min at room temperature. […] RNA was eluted from the streptavidin beads by incubation with 100 μL of 1× Elution Buffer (10 mM EDTA and 95% formamide) at 65° C. for 20 min. The eluted RNA was cleaned up using a Quick-RNA Miniprep Kit (Zymo) per the manufacturer's protocol. RT-qPCR was completed as described above using 50 ng of total RNA in the RT reaction. Expression levels were normalized to 18S rRNA.

pre-miR-18a = assay: Chem-CLIP in DU145 cell lysates; format: binding, human; settings: 10 μM, DU145 cell lysate
Experimental: as §3

pre-miR-20a = assay: Chem-CLIP in DU145 cell lysates; format: binding, human; settings: 10 μM, DU145 cell lysate
Experimental: as §3

CN1CCN(c2ccc(-c3ccc4nc(-c5cc(C(C)(C)C)c(OCCCC(=O)NCCCN=[N+]=[N-])c(C(C)(C)C)c5)[nH]c4c3)cc2)CC1 [Compound 4]
Effect on levels of 33 other mature miRNAs [1]: no statistically significant effect | Saturable binding [2]: No saturable binding | Saturable binding [3]: No saturable binding | Saturable binding [4]: No saturable binding | Kd (AT-rich DNA hairpin): > 100 µM | Enrichment in pulled-down fraction (pre-miR-17): ~2 fold | Enrichment in pulled-down fraction (pre-miR-18a): ~4 fold | Enrichment in pulled-down fraction (pre-miR-20a): ~2 fold
